Measurements as given in the RepoRT retention time repository.

test: RP, Thermo Scientific Hypersil GOLD, 200 × 2.1 mm, 1.9 µm, 40 °C, 0.4 mL/min, estimated dead time 1.1 min; A: water + 0.2% formic acid; B: acetonitrile; gradient (min/%B) 0/10 0.5/10 22/100 30/100 30.2/10 35/10; conditions: stereoisomer not certain

SMILES | LC retention time [min]
O=c1ccc2ccc(O)cc2o1 [7-hydroxycoumarin] | 5.43
CC1(C(=O)O)CCC2(C)CCC3(C)C(=CC(=O)C4C5(C)CCC(O)C(C)(C)C5CCC43C)C2C1 (stereo not drawn) [18beta-glycyrrhetinic acid] | 16.6
CC(C)C1=CC2=CCC3C(C)(C(=O)O)CCCC3(C)C2CC1 (centres undefined) [abietic acid] | 19.3
CC1CCC2C(C)C3C(CC4C5CC=C6CC(OC7OC(CO)C(OC8OC(C)C(O)C(O)C8O)C(O)C7OC7OC(C)C(O)C(O)C7O)CCC6(C)C5CCC43C)N2C1 (stereo not drawn) [alpha-chaconine] | 7.97
CC1CCC2C(C)C3C(CC4C5CC=C6CC(OC7OC(CO)C(O)C(OC8OC(CO)C(O)C(O)C8O)C7OC7OC(C)C(O)C(O)C7O)CCC6(C)C5CCC43C)N2C1 (stereo not drawn) [alpha-solanine] | 7.91
CC1CCC2(C(=O)O)CCC3(C)C(=CCC4C5(C)CC(O)C(O)C(C)(CO)C5CCC43C)C2C1C (centres undefined) [asiatic acid] | 12.7
C=C(C)C1CCC2(C(=O)O)CCC3(C)C(CCC4C5(C)CCC(O)C(C)(C)C5CCC43C)C12 (centres undefined) [betulinic acid] | 18.8
O=C(C=Cc1ccc(O)c(O)c1)OCCc1ccccc1 [caffeic acid phenylethyl ester] | 12.2
O=C(C=Cc1ccc(O)c(O)c1)OC1CC(O)(C(=O)O)CC(O)C1O (centres undefined) [chlorogenic acid] | 3.21
O=C(O)c1cc(O)c(O)c(O)c1 [gallic acid] | 1.6
COc1ccc(C2CC(=O)c3c(O)cc(OC4OC(CO)C(O)C(O)C4OC4OC(C)C(O)C(O)C4O)cc3O2)cc1O (centres undefined) [hesperetin 7-O-neohesperidoside] | 6.61
COc1ccc(C2CC(=O)c3c(O)cc(OC4OC(COC5OC(C)C(O)C(O)C5O)C(O)C(O)C4O)cc3O2)cc1O (centres undefined) [hesperetin 7-rutinoside] | 6.39
COc1ccc(C2CC(=O)c3c(O)cc(O)cc3O2)cc1O (centres undefined) [hesperetin] | 9.3
OCCc1ccc(O)c(O)c1 [hydroxytyrosol] | 2.46
COc1cc(-c2oc3cc(O)cc(O)c3c(=O)c2O)ccc1O [isorhamnetin] | 9.25
CC1OC(OCC2OC(Oc3c(-c4ccc(O)cc4)oc4cc(O)cc(O)c4c3=O)C(O)C(O)C2O)C(O)C(O)C1O (centres undefined) [kaempferol 3-rutinoside] | 5.64
O=c1c(O)c(-c2ccc(O)cc2)oc2cc(O)cc(O)c12 [kaempferol] | 9.01

SMILES | LC retention time [min]
COc1cc(CC2COC(c3ccc(O)c(OC)c3)C2CO)ccc1O (centres undefined) [lariciresinol] | 7.24
O=c1cc(-c2ccc(O)c(O)c2)oc2cc(O)cc(O)c12 [luteolin] | 7.75
COc1cc(-c2[o+]c3cc(O)cc(O)c3cc2OC2OC(CO)C(O)C(O)C2O)cc(OC)c1O (centres undefined) [malvidin 3-glucoside] | 3.86
CC1OC(OC2C(Oc3cc(O)c4c(c3)OC(c3ccc(O)cc3)CC4=O)OC(CO)C(O)C2O)C(O)C(O)C1O (centres undefined) [naringenin 7-O-neohesperidoside] | 6.18
O=C1CC(c2ccc(O)cc2)Oc2cc(O)cc(O)c21 (centres undefined) [naringenin] | 8.88
CC=C1C(OC2OC(CO)C(O)C(O)C2O)OC=C(C(=O)OC)C1CC(=O)OCCc1ccc(O)c(O)c1 (centres undefined) [oleuropein] | 7.05
O=C(O)/C=C/c1ccc(O)cc1 [p-coumaric acid] | 5.04
O=C(C=Cc1ccc(O)cc1)OC1CC(O)(C(=O)O)CC(O)C1O (centres undefined) [p-coumarlyquinnic acid] | 4.21
O=C(CCc1ccc(O)cc1)c1c(O)cc(O)cc1OC1OC(CO)C(O)C(O)C1O (centres undefined) [phloridzin] | 6.77
O=C(O)c1ccc(O)c(O)c1 [protocatechuic acid] | 2.41
CC1OC(Oc2c(-c3ccc(O)c(O)c3)oc3cc(O)cc(O)c3c2=O)C(O)C(O)C1O (centres undefined) [quercetin 3-rhamnoside] | 6.02
CC1OC(OCC2OC(Oc3c(-c4ccc(O)c(O)c4)oc4cc(O)cc(O)c4c3=O)C(O)C(O)C2O)C(O)C(O)C1O (centres undefined) [quercetin 3-rutinoside] | 5.07
O=c1c(O)c(-c2ccc(OC3OC(CO)C(O)C(O)C3O)c(O)c2)oc2cc(O)cc(O)c12 (centres undefined) [quercetin 4'-glucoside] | 6.25
O=c1c(O)c(-c2ccc(O)c(O)c2)oc2cc(O)cc(O)c12 [quercetin] | 7.8
COc1cc(CC(CO)C(CO)Cc2ccc(O)c(OC)c2)ccc1O (centres undefined) [secoisolariciresinol] | 6.86
CC1CCC2(NC1)OC1CC3C4CCC5CC(OC6OC(CO)C(OC7OC(CO)C(O)C(OC8OCC(O)C(O)C8O)C7OC7OC(CO)C(O)C(O)C7O)C(O)C6O)CCC5(C)C4CCC3(C)C1C2C (centres undefined) [tomatin] | 7.55
CC1CCC2(C(=O)O)CCC3(C)C(=CCC4C5(C)CCC(O)C(C)(C)C5CCC43C)C2C1C (centres undefined) [ursolic acid] | 19.2
